# In patent US10493091B2, “Method for storing P1, P4-bis(5′-uridyl)teraphosphate crystals” (Yamasa Corporation, priority 2015, dated 2019):
# Key:
# [1] = Stability test of packed UP4U crystals, four weeks of storage, HPLC purity; type: physicochemical; conditions: for decrease in HPLC purity: regardless of the crystal pH
# Procedure: (Packing of Test Sample) An amount of approximately 20 mg of each test sample was put into a pouch made of low-density polyethylene and sealed by heat sealing. This pouch was further put into a pouch made of low-density polyethylene and sealed by heat sealing. This pouch was still further put into a pouch made of low-density polyethylene and sealed by heat sealing. This pouch was put into a pouch made of aluminum-metallized film and sealed by heat sealing, thus preparing a sample for stability test. (Stability Test) Packed samples were put into thermostatic baths at 5° C., 25° C., 40° C., and 60° C., respectively, and stored for four weeks. (Analysis) For each sample zero days after the start of the stability test and samples of the same type at four weeks of storage at the different temperatures, the packing by sealing was opened and each of the test samples was dissolved in deionized water. This solution was analyzed by HPLC and, based on the analysis result, evaluated in terms of stability. The conditions of the measurement using HPLC in this analysis were as follows. [table] The evaluation was made by defining the value obtained by subtracting the HPLC purity (%) of crystals zero days after the start of the stability test from the HPLC purity (%) of the crystals at four weeks of storage as a rate of change (%).
# [2] = pH measurement of UP4U crystals (crystal pH); type: physicochemical; conditions: 1.0 g dissolved in 20 mL distilled water
# Procedure: The term crystal pH in the present invention refers to the value of pH of crystals measured with 1 g of crystals dissolved in 20 mL of water. The control of the pH of UP4U crystals within a desired range of values is possible, for example, by controlling the pH of an original solution for use in crystallization. To control the pH, it is sufficient to use, as necessary, an arbitrary acid or alkali capable of being used for production of raw materials or the like for pharmaceutical products. An arbitrary one selected from hydrochloric acid, nitric acid, phosphoric acid, and so on can be used as the acid and an arbitrary one selected from sodium hydroxide, sodium carbonate, sodium hydrogen carbonate, and so on can be used as the alkali.
# Control of UP4U Crystals with Different pHs UP4U crystals prepared by a known method were dissolved in deionized water. Various phosphoric acid aqueous solutions or sodium hydroxide aqueous solutions were each added to the solution containing UP4U dissolved therein to prepare solutions having different pHs (hereinafter, referred to as “original solutions”).
# Ethanol was put into each of the original solutions to make the original solution lightly cloudy, followed by addition of a small amount of UP4U crystals and stirring for a dozen hours. After confirmation of crystal precipitation, ethanol was further put into each of the solutions, the solution was stirred, and crystals were then separated from the solution using a centrifuge. The obtained various crystals were dried with a circulation dryer to prepare various UP4U crystals having different pHs.
# (pH Measurement) Water was sufficiently boiled and then cooled in a state where a carbon dioxide absorption tube was connected, thus preparing distilled water. An amount of 1.0 g of each test sample was dissolved in 20 mL of the prepared distilled water. The pH (crystal pH) of this solution was measured.
compound,measurement,setting,value
"O=c1ccn([C@@H]2O[C@H](COP(=O)(O)OP(=O)(O)OP(=O)(O)OP(=O)(O)OC[C@H]3O[C@@H](n4ccc(=O)[nH]c4=O)[C@H](O)[C@@H]3O)[C@@H](O)[C@H]2O)c(=O)[nH]1 [UP4U crystals, P^1,P^4-bis(5′-uridyl)tetraphosphate]",rate of change in HPLC purity,"[1]; 5° C., four weeks of storage, crystal pH 4.60",0.01%
same,rate of change in HPLC purity,"[1]; 5° C., four weeks of storage, crystal pH 5.16",0.00%
same,rate of change in HPLC purity,"[1]; 5° C., four weeks of storage, crystal pH 5.54",0.00%
same,rate of change in HPLC purity,"[1]; 5° C., four weeks of storage, crystal pH 5.64",0.00%
same,rate of change in HPLC purity,"[1]; 5° C., four weeks of storage, crystal pH 5.97",0.00%
same,rate of change in HPLC purity,"[1]; 5° C., four weeks of storage, crystal pH 6.32",0.00%
same,rate of change in HPLC purity,"[1]; 5° C., four weeks of storage, crystal pH 6.66",−0.01%
same,rate of change in HPLC purity,"[1]; 5° C., four weeks of storage, crystal pH 6.91",0.00%
same,rate of change in HPLC purity,"[1]; 5° C., four weeks of storage, crystal pH 7.12",0.00%
same,rate of change in HPLC purity,"[1]; 5° C., four weeks of storage, crystal pH 7.43",0.01%
same,rate of change in HPLC purity,"[1]; 5° C., four weeks of storage, crystal pH 7.97",0.03%
same,rate of change in HPLC purity,"[1]; 25° C., four weeks of storage, crystal pH 4.60",−0.01%
same,rate of change in HPLC purity,"[1]; 25° C., four weeks of storage, crystal pH 5.16",−0.02%
same,rate of change in HPLC purity,"[1]; 25° C., four weeks of storage, crystal pH 5.54",−0.02%
same,rate of change in HPLC purity,"[1]; 25° C., four weeks of storage, crystal pH 5.64",−0.01%
same,rate of change in HPLC purity,"[1]; 25° C., four weeks of storage, crystal pH 5.97",−0.02%
same,rate of change in HPLC purity,"[1]; 25° C., four weeks of storage, crystal pH 6.32",−0.01%
same,rate of change in HPLC purity,"[1]; 25° C., four weeks of storage, crystal pH 6.66",−0.03%
same,rate of change in HPLC purity,"[1]; 25° C., four weeks of storage, crystal pH 6.91",−0.02%
same,rate of change in HPLC purity,"[1]; 25° C., four weeks of storage, crystal pH 7.12",−0.02%
same,rate of change in HPLC purity,"[1]; 25° C., four weeks of storage, crystal pH 7.43",−0.01%
same,rate of change in HPLC purity,"[1]; 25° C., four weeks of storage, crystal pH 7.97",−0.01%
same,rate of change in HPLC purity,"[1]; 40° C., four weeks of storage, crystal pH 4.60",−0.05%
same,rate of change in HPLC purity,"[1]; 40° C., four weeks of storage, crystal pH 5.16",−0.04%
same,rate of change in HPLC purity,"[1]; 40° C., four weeks of storage, crystal pH 5.54",−0.03%
same,rate of change in HPLC purity,"[1]; 40° C., four weeks of storage, crystal pH 5.64",−0.02%
same,rate of change in HPLC purity,"[1]; 40° C., four weeks of storage, crystal pH 5.97",−0.03%
same,rate of change in HPLC purity,"[1]; 40° C., four weeks of storage, crystal pH 6.32",−0.02%
same,rate of change in HPLC purity,"[1]; 40° C., four weeks of storage, crystal pH 6.66",−0.04%
same,rate of change in HPLC purity,"[1]; 40° C., four weeks of storage, crystal pH 6.91",−0.04%
same,rate of change in HPLC purity,"[1]; 40° C., four weeks of storage, crystal pH 7.12",−0.08%
same,rate of change in HPLC purity,"[1]; 40° C., four weeks of storage, crystal pH 7.43",−0.15%
same,rate of change in HPLC purity,"[1]; 40° C., four weeks of storage, crystal pH 7.97",−0.12%
same,rate of change in HPLC purity,"[1]; 60° C., four weeks of storage, crystal pH 4.60",−0.25%
same,rate of change in HPLC purity,"[1]; 60° C., four weeks of storage, crystal pH 5.16",−0.08%
same,rate of change in HPLC purity,"[1]; 60° C., four weeks of storage, crystal pH 5.54",−0.07%
same,rate of change in HPLC purity,"[1]; 60° C., four weeks of storage, crystal pH 5.64",−0.07%
same,rate of change in HPLC purity,"[1]; 60° C., four weeks of storage, crystal pH 5.97",−0.08%
same,rate of change in HPLC purity,"[1]; 60° C., four weeks of storage, crystal pH 6.32",−0.14%
same,rate of change in HPLC purity,"[1]; 60° C., four weeks of storage, crystal pH 6.66",−0.18%
same,rate of change in HPLC purity,"[1]; 60° C., four weeks of storage, crystal pH 6.91",−0.24%
same,rate of change in HPLC purity,"[1]; 60° C., four weeks of storage, crystal pH 7.12",−0.46%
same,rate of change in HPLC purity,"[1]; 60° C., four weeks of storage, crystal pH 7.43",−0.50%
same,rate of change in HPLC purity,"[1]; 60° C., four weeks of storage, crystal pH 7.97",−0.87%
same,rate of change in HPLC purity,"[1]; four weeks, one of: (1) 0° C. or more and less than 25° C., (2) 25° C. or more and less than 40° C. and crystal pH 4.5 to 8.0, (3) 40° C. or more and less than 60° C. and crystal pH 5.0 to 6.4",≤ 0.15%
same,rate of change in HPLC purity,"[1]; four weeks, one of: (4) 0° C. or more and less than 25° C., (5) 25° C. or more and less than 40° C. and crystal pH 4.5 to 7.4, (6) 40° C. or more and less than 60° C. and crystal pH 5.2 to 6.2",≤ 0.10%
same,rate of change in HPLC purity,"[1]; four weeks, one of: (7) 0° C. or more and less than 25° C., (8) 25° C. or more and less than 40° C. and crystal pH 4.6 to 6.6",≤ 0.05%
same,decrease in HPLC purity,[1]; storage temperature 0° C. or more and less than 25° C.,substantially no decrease
same,decrease in HPLC purity,[1]; storage temperature of 60° C. or more,may significantly decrease
same,Crystal pH,[2]; original liquid pH 2.50,4.60
same,Crystal pH,[2]; original liquid pH 3.00,5.16
same,Crystal pH,[2]; original liquid pH 3.50,5.54
same,Crystal pH,[2]; original liquid pH 4.00,5.64
same,Crystal pH,[2]; original liquid pH 5.50,5.97
same,Crystal pH,[2]; original liquid pH 6.50,6.32
same,Crystal pH,[2]; original liquid pH 7.40,6.66
same,Crystal pH,[2]; original liquid pH 7.80,6.91
same,Crystal pH,[2]; original liquid pH 8.00,7.12
same,Crystal pH,[2]; original liquid pH 8.10,7.43
same,Crystal pH,[2]; original liquid pH 8.20,7.97
